# Assays:
# pERK1/2 (Thr202/Tyr204) = experiment: Immunofluorescence of lung sections, phosphorylation of ERK1/2; format: in vivo, mice; settings: synergy study; OBE 30 mg/kg, dexamethasone 0.5 mg/kg, alone or combined; HDM 319.0±10.4
# Experimental: Lung tissues were processed as described above. Immunofluorescence was performed as previously described in the literature. In short, lung sections were incubated in a blocking solution (5% bovine serum albumin (BSA)+0.3% Triton X-100 in PBS) for 1 hour, and were subsequently incubated overnight at 4° C. with primary antibodies [p-EGFR (Tyr1068) (Rabbit; Cat. No. 3777S), pAKT (Ser 473) (Rabbit; Cat. No. 9271L) and pERK1/2 (Thr202/Tyr204) (Rabbit; Cat. No. 9101L) (1:25-1:800 dilution) or only 1% BSA (for negative control); Cell Signaling, USA], diluted in 1% blocking solution. Twenty-four hours later, the sections were washed and incubated with secondary antibody conjugated to Alexa Fluor 555 (Goat anti rabbit SFX kit; Life Technologies, USA, 1:400 dilution) for 2 hours at room temperature in the dark. Following several washes in PBS, the sections were stained with 4′,6-diamidino-2-phenylindole and mounted. Images were then captured on a ZEISS LSM 700 confocal microscope, and fluorescence intensity was estimated in defined fields using an Image J software package. […]
# All numerical values were expressed as means±SEM. […] For the histopathological assessment, a semi-quantitative 5-level lung pathology score was used to grade the degree of inflammation in each microscopic field at 20×. All data were initially assessed for normality. […]
# [1] = tested on: HDM-challenged BALB/c mice; experiment: HDM-induced airway hyperresponsiveness to methacholine (lung resistance); format: in vivo; settings: dexamethasone 3 mg/kg; 50 mg/ml of methacholine; HDM/vehicle 7.9±0.5
# Experimental: Airway responsiveness was measured 24 h after the last HDM or PBS challenge, using a separate set of animals using the Buxco FinePointe series RC site (DSI, Wilmington, NC) as described previously in the literature. Briefly, mice were anesthetized with an intraperitoneal injection of ketamine/xylazine ([…]) cocktail and tracheotomized with a steel 18-gauge cannula. Mice were then mechanically ventilated at a rate of 150 breaths/minute and a tidal volume of 0.15 ml using a computerized small animal ventilator (FinePointe site). Following a 5 min period of stabilization and administration of PBS, airway resistance was measured by exposing mice to aerosolized methacholine (6.25-50.0 mg/ml, 5 μl per delivery) delivered by an aerogen nebulizer and reported as total lung resistance (RL) (cm H2O per ml/sec).
# All numerical values were expressed as means±SEM. Total cell counts represent the number of cells/ml of BAL fluid. Differential cell counts represent the absolute number of each cell type/ml of BAL fluid. Absolute RL values were computed and were used as an index of airway responsiveness. For the histopathological assessment, a semi-quantitative 5-level lung pathology score was used to grade the degree of inflammation in each microscopic field at 20×. All data were initially assessed for normality. […]
# [2] = tested on: HDM-challenged BALB/c mice; experiment: HDM-induced total and differential cell influx in BAL fluid; format: in vivo; settings: synergy study, OBE 30 mg/kg i.p., dexamethasone 0.5 mg/kg i.p., alone or combined, mean±SEM
# Experimental: (§1) Male BALB/c mice (6-8 weeks old, average weight 25 g) were used in this study. All studies involving animals were in accordance with the ARRIVE guidelines for reporting experiments involving animals. All experimental protocols were approved by the Animal Welfare and Use of Laboratory Animals Committee in the Health Sciences Center, Kuwait University and were carried out in accordance with the EU Directive 2010/63/EU for animal experiments and the National Institutes of Health guide for the care and use of Laboratory animals (NIH Publications No. 8023, revised 1978). Animals were maintained under temperature-controlled conditions with an artificial 12-hour light/dark cycle and were allowed standard chow and water ad libitum.
# (§2) Seven treatment groups (A-G, 9-15 animals per group) were established to determine whether OBE, if given prophylactically, inhibits the HDM-induced asthma phenotype. […]
# (§3) Twenty-four hours after the last intranasal challenge, half of the animals were sacrificed with an overdose of halothane, bronchoalveolar lavage (BAL) was performed to obtain BAL fluid, and then the lungs were excised in preparation for histology, Western Blot (WB) and immunofluorescence (IF) studies. […] In the other half of the animals, airway responsiveness was measured.
# [3] = tested on: HDM-challenged BALB/c mice; experiment: Lung histology scoring (H&E and PAS) after HDM challenge; format: in vivo; settings: synergy study, OBE 30 mg/kg, dexamethasone 0.5 mg/kg, alone or combined, score 1-5
# Experimental: as §1, §2, §3
structure (smiles),measurement,setting,value
C[C@@H]1C[C@H]2[C@@H]3CCC4=CC(=O)C=C[C@]4(C)[C@@]3(F)[C@@H](O)C[C@]2(C)[C@@]1(O)C(=O)CO [dexamethasone],HDM-induced phosphorylation of ERK1/2 (pERK1/2 levels),pERK1/2 (Thr202/Tyr204),264.8±4.9%
same,lung resistance (RL),[1],5.2±0.8 cm H2O per ml/sec
same,eosinophils in BAL fluid,[2]; HDM/vehicle 3.7±0.3,1.3±0.1 ×10^5
same,total cell count in BAL fluid,[2]; HDM/vehicle 6.4±0.5,4.3±0.2 ×10^5
same,mucous intensity score,[3]; HDM 4.2±0.2,3.0±0.2
same,cellular infiltration score,[3]; HDM 4.5±0.2,3.1±0.3

# — patent US12673065B2, “Anti-inflammatory composition and method of treatment” (KUWAIT UNIVERSITY, priority 2020, dated 2026)
